Measured values: patent US11946028B2, “Fibrosis model on a chip” (The Trustees of the University of Pennsylvania, priority 2015, dated 2024)

Test system: human lung fibroblasts
Experiment: Serum-induced fibrosis in biomimetic five-layer lung fibrosis model
Type: cell-based
Conditions: 2 μM PP2 added to medium 24 hours after assembly, maintained for the study; 0.2% serum in the model; FIG. 20
Description: The first and second channel slabs and the chamber slab of the model were formed using soft lithography techniques, in which the PDMS mixture was poured over the mold, and the slabs were allowed to cure. The microchannels were etched into each of the channel slabs, with the dimensions of 10 mm×1 mm×0.15 mm (length×width×height). The chamber was etched into the chamber slab, with the dimensions of 6 mm×3 mm×1 mm (length×width×height). See FIG. 9 for a picture of the five-layer model and FIG. 2A-2B for a schematic of the five-layer model.
Next, the cellular physiology of the cell-lined fluidic channels with the gel layer of the five-layer model was examined (FIG. 11). In this instance, the upper channel contained human lung endothelial cells cultured with commercially available medium from the supplying vendor of the cells. The lower channel contained small airway epithelial cells with similar specific medium, both from same vendor. The gel was created by adding collagen to physiological aqueous buffer at a concentration of 2 mg/ml and kept at 4° C. Human lung fibroblasts (100 K cells/ml) were added to the gel during the liquid phase. The side of the membranes facing the chamber slab were treated with sulfo-sanpah to promote collagen/ECM anchorage. The lower channel slab, lower membrane, and chamber slab were stacked. The gel was then pipetted into the chamber. […]

With CC(C)(C)n1nc(-c2ccc(Cl)cc2)c2c(N)ncnc21 [PP2] the “effect on serum-induced fibrosis” value was “reduced fibrosis”.
